According to PubChem BioAssay (NCI):
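Assay format: 96-well plates, 48-hour exposure. GI50 = concentration required for 50% inhibition of growth. TGI denotes the concentration required for complete inhibition of growth.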

What was measured:
Assay in all cases: DTP human tumour cell line panel, 48 h
[1] = tested on: SK-OV-3 ovarian
[2] = tested on: 786-0 renal
[3] = tested on: HT29 colon
[4] = tested on: CCRF-CEM leukemia
[5] = tested on: OVCAR-3 ovarian
[6] = tested on: HOP-62 NSCLC
[7] = tested on: MOLT-4 leukemia
[8] = tested on: MALME-3M melanoma
[9] = tested on: SK-MEL-5 melanoma
[10] = tested on: UACC-257 melanoma
[11] = tested on: A498 renal
[12] = tested on: NCI-H460 lung
[13] = tested on: M14 melanoma
[14] = tested on: HOP-92 NSCLC
[15] = tested on: HS 578T breast
[16] = tested on: A549 NSCLC
[17] = tested on: CAKI-1 renal
[18] = tested on: HL-60(TB) leukemia
[19] = tested on: IGROV1 ovarian
[20] = tested on: HCT-116 colon
[21] = tested on: ACHN renal
[22] = tested on: HCC-2998 colon
[23] = tested on: MDA-MB-231 breast
[24] = tested on: SK-MEL-2 melanoma
[25] = tested on: SR leukemia
[26] = tested on: U251 CNS
[27] = tested on: UACC-62 melanoma
[28] = tested on: MDA-MB-435
[29] = tested on: HCT-15 colon
[30] = tested on: MCF7 breast
[31] = tested on: SN12C renal
[32] = tested on: SF-295 CNS
[33] = tested on: PC-3 prostate
[34] = tested on: SF-539 CNS
[35] = tested on: TK-10 renal
[36] = tested on: OVCAR-4 ovarian
[37] = tested on: SW-620 colon
[38] = tested on: UO-31 renal
[39] = tested on: NCI-H522 lung
[40] = tested on: SNB-19 CNS
[41] = tested on: NCI-H226 lung
[42] = tested on: BT-549 breast
[43] = tested on: LOX IMVI melanoma
[44] = tested on: DU-145 prostate
[45] = tested on: OVCAR-5 ovarian
[46] = tested on: KM12 colon
[47] = tested on: RPMI-8226 leukemia
[48] = tested on: NCI-H23 lung
[49] = tested on: COLO 205 colon
[50] = tested on: T-47D breast
[51] = tested on: SK-MEL-28 melanoma
[52] = tested on: SF-268 CNS
[53] = tested on: RXF 393 renal
[54] = tested on: K-562 leukemia
[55] = tested on: NCI/ADR-RES ovarian
[56] = tested on: OVCAR-8 ovarian
[57] = tested on: SNB-75 CNS
[58] = tested on: EKVX NSCLC

COc1ccc(OC)c(N(CCN2C(=O)c3ccccc3C2=O)C(=O)CCl)c1
GI50 [1]: 0.688 µM | TGI [1]: 2.05 µM | GI50 [2]: 0.901 µM | TGI [2]: 3.1 µM | GI50 [3]: 0.497 µM | TGI [3]: 2.15 µM | GI50 [4]: 0.229 µM | TGI [4]: 0.542 µM | GI50 [5]: 0.641 µM | TGI [5]: 1.62 µM | GI50 [6]: 0.379 µM | TGI [6]: 1.97 µM | GI50 [7]: 10.3 µM | TGI [7]: 37.7 µM | GI50 [8]: 0.706 µM | TGI [8]: 3.16 µM | GI50 [9]: 16 µM | TGI [9]: 35.3 µM | GI50 [10]: 20.7 µM | TGI [10]: 88 µM | GI50 [11]: 6.81 µM | TGI [11]: 25.4 µM | GI50 [12]: 13.5 µM | TGI [12]: 48.5 µM | GI50 [13]: 24.6 µM | TGI [13]: > 100 µM | GI50 [14]: 0.181 µM | TGI [14]: 0.48 µM | GI50 [15]: 13.7 µM | TGI [15]: 68.9 µM | GI50 [16]: 9.35 µM | TGI [16]: 44.7 µM | GI50 [17]: 0.482 µM | TGI [17]: 2 µM | GI50 [18]: 0.202 µM | TGI [18]: 0.411 µM | GI50 [19]: 0.121 µM | TGI [19]: 0.299 µM | GI50 [20]: 17.7 µM | TGI [20]: 59.5 µM | GI50 [21]: 0.831 µM | TGI [21]: 4.85 µM | GI50 [22]: 20.4 µM | TGI [22]: 56 µM | GI50 [23]: 1.24 µM | TGI [23]: 7.51 µM | GI50 [24]: 12.4 µM | TGI [24]: 35.1 µM | GI50 [25]: 0.119 µM | GI50 [26]: 3.74 µM | TGI [26]: 17.8 µM | GI50 [27]: 6.24 µM | TGI [27]: 21.6 µM | GI50 [28]: 15.6 µM | TGI [28]: 66.7 µM | GI50 [29]: 11.6 µM | TGI [29]: > 54.6 µM | GI50 [30]: 14.2 µM | TGI [30]: 43 µM | GI50 [31]: 22.7 µM | TGI [31]: > 100 µM | GI50 [32]: 1.09 µM | TGI [32]: 2.44 µM | GI50 [33]: 14 µM | TGI [33]: 67 µM | GI50 [34]: 1.13 µM | TGI [34]: 2.68 µM | GI50 [35]: 16.9 µM | TGI [35]: 39.9 µM | GI50 [36]: 0.23 µM | TGI [36]: 0.554 µM | GI50 [37]: 15.3 µM | TGI [37]: > 58.5 µM | GI50 [38]: 0.0667 µM | TGI [38]: 0.154 µM | GI50 [39]: 0.0631 µM | TGI [39]: 0.157 µM | GI50 [40]: 30.4 µM | TGI [40]: > 100 µM | GI50 [41]: 30.9 µM | TGI [41]: > 89.2 µM | GI50 [42]: 17.9 µM | TGI [42]: 46.7 µM | GI50 [43]: 0.191 µM | TGI [43]: 0.406 µM | GI50 [44]: 6.09 µM | TGI [44]: 37.7 µM | GI50 [45]: 1.42 µM | TGI [45]: 15.8 µM | GI50 [46]: 0.617 µM | TGI [46]: 5.17 µM | GI50 [47]: 2.06 µM | TGI [47]: 9.34 µM | GI50 [48]: 2.26 µM | TGI [48]: 12.3 µM | GI50 [49]: 13.5 µM | TGI [49]: 29.3 µM | GI50 [50]: 18.9 µM | TGI [50]: 54.4 µM | GI50 [51]: 23.4 µM | TGI [51]: 91.2 µM | GI50 [52]: 0.931 µM | TGI [52]: 3.2 µM | GI50 [53]: 0.615 µM | TGI [53]: 12.6 µM | GI50 [54]: 21.3 µM | TGI [54]: > 70.4 µM | GI50 [55]: 3.31 µM | TGI [55]: > 19.6 µM | GI50 [56]: 7.5 µM | TGI [56]: 46.3 µM | GI50 [57]: 0.288 µM | TGI [57]: 1.22 µM

CCOC(=O)c1cnc2c(C)cc(C)cc2c1NCCCN(C)C
GI50 [1]: 3.98 µM | TGI [1]: 32.4 µM | GI50 [2]: 4.91 µM | TGI [2]: 25.7 µM | GI50 [3]: 1.53 µM | TGI [3]: 3.85 µM | GI50 [4]: 13.6 µM | TGI [4]: 62.7 µM | GI50 [5]: 3.62 µM | TGI [5]: 27.5 µM | GI50 [6]: 4.66 µM | TGI [6]: 44.2 µM | GI50 [7]: 4.58 µM | TGI [7]: 33.7 µM | GI50 [8]: 5.84 µM | TGI [8]: 21.7 µM | GI50 [9]: 4.38 µM | TGI [9]: 16.5 µM | GI50 [10]: 10.2 µM | TGI [10]: 26.2 µM | GI50 [11]: 2.85 µM | TGI [11]: 14.9 µM | GI50 [12]: 2.57 µM | TGI [12]: 9.14 µM | GI50 [13]: 4.67 µM | TGI [13]: 17.5 µM | GI50 [14]: 2.08 µM | TGI [14]: 12.5 µM | GI50 [15]: 4.37 µM | TGI [15]: 28.3 µM | GI50 [16]: 5.29 µM | TGI [16]: > 100 µM | GI50 [17]: 3.9 µM | TGI [17]: > 100 µM | GI50 [18]: 5.6 µM | TGI [18]: 57.1 µM | GI50 [19]: 4.98 µM | TGI [19]: > 100 µM | GI50 [20]: 2.74 µM | TGI [20]: 21.4 µM | GI50 [21]: 3.09 µM | TGI [21]: 40.4 µM | GI50 [22]: 5.35 µM | TGI [22]: 19.6 µM | GI50 [23]: 3.1 µM | TGI [23]: 20.4 µM | GI50 [24]: 9.7 µM | TGI [24]: 31.7 µM | GI50 [25]: 2.52 µM | TGI [25]: 8.21 µM | GI50 [26]: 4.66 µM | TGI [26]: 76.2 µM | GI50 [28]: 4.09 µM | TGI [28]: 18.1 µM | GI50 [29]: 3.69 µM | TGI [29]: 51.7 µM | GI50 [30]: 2.78 µM | TGI [30]: 15.7 µM | GI50 [31]: 3.82 µM | TGI [31]: > 100 µM | GI50 [32]: 3.3 µM | TGI [32]: 37.2 µM | GI50 [33]: 4.08 µM | TGI [33]: 85.1 µM | GI50 [34]: 3.48 µM | TGI [34]: 14 µM | GI50 [35]: 3.91 µM | TGI [35]: 88 µM | GI50 [36]: 3.25 µM | TGI [36]: 14 µM | GI50 [37]: 3.43 µM | TGI [37]: 41.7 µM | GI50 [38]: 2.87 µM | TGI [38]: > 100 µM | GI50 [39]: 11.2 µM | TGI [39]: 35 µM | GI50 [40]: 5.27 µM | TGI [40]: 60.1 µM | GI50 [41]: 4.12 µM | TGI [41]: 26.8 µM | GI50 [42]: 11.5 µM | TGI [42]: 39.9 µM | GI50 [43]: 2.83 µM | TGI [43]: 13.6 µM | GI50 [44]: 3.8 µM | TGI [44]: 55.8 µM | GI50 [45]: 4.53 µM | TGI [45]: 46.1 µM | GI50 [46]: 4.15 µM | TGI [46]: 27.2 µM | GI50 [47]: 17 µM | TGI [47]: 46.5 µM | GI50 [48]: 4.29 µM | TGI [48]: 21.4 µM | GI50 [49]: 1.58 µM | TGI [49]: 3.55 µM | GI50 [50]: 4.73 µM | TGI [50]: 29.4 µM | GI50 [51]: 13 µM | TGI [51]: 26.1 µM | GI50 [52]: 3.91 µM | TGI [52]: 23.9 µM | GI50 [53]: 5.86 µM | TGI [53]: 25 µM | GI50 [54]: 4.81 µM | TGI [54]: 35.2 µM | GI50 [58]: 4.22 µM | TGI [58]: 35.6 µM | GI50 [55]: 3.57 µM | TGI [55]: 78.3 µM | GI50 [56]: 5.67 µM | TGI [56]: > 100 µM | GI50 [57]: 2.74 µM | TGI [57]: 17.4 µM
